Test results: EP0571593B1, “NEW NON IONIC IODIZED AGENTS FOR X-RAY CONTRASTING, METHOD FOR PREPARING THEM AND GALENICAL COMPOSITIONS CONTAINING THEM” (CENTRO INVESTIGACION JUSTESA IMAGEN S.A., priority 1991, dated 1993)

Legend:
Assay type in all cases: physicochemical
[1] = Viscosity of aqueous solutions; details: 30°C, 300mg I/ml
[2] = Osmolality of aqueous solutions; details: 300mg I/ml
Iodine content = assay: Iodine content

| SMILES | Viscosity mPa s (30°C) at 300mg I/ml [1] | Osmolality mosm/kg at 300mg I/ml [2] [mosm/kg] | % Iodine (Iodine content) |
| --- | --- | --- | --- |
| CN(CC(O)CO)C(=O)c1c(I)c(C(=O)N(C)CC(O)CO)c(I)c(N(C)C(=O)CNC(=O)c2c(I)c(NC(=O)CO)c(I)c(C(=O)NCC(O)CO)c2I)c1I (stereo not drawn) [EXAMPLE 26, N,N'-bis-(2,3-dihydroxypropyl)-N,N'-dimethyl-5-{3-[N-(2,3-dihydroxypropyl)carbamoyl]-5-hydroxyacetamido-2,4,6-triiodobenzoylaminoacetyl-N-methylamino}-2,4,6-triiodoiso phthalamide] | 7,7 mPa s | 145 | 51,6% |
| COCC(=O)N(CCO)c1c(I)c(C(=O)NCC(O)CO)c(I)c(C(=O)N(CCO)CC(=O)N(CCO)c2c(I)c(C(=O)NCCO)c(I)c(C(=O)NCCO)c2I)c1I (stereo not drawn) [EXAMPLE 32, N,N'-bis-(2-hydroxyethyl)-5-{3-[N-(2,3-dihydroxypropyl)carbamoyl]-5-methoxyacetyl-N-(2-hydroxyethyl)amino-2,4,6-triiodobenzoyl-N-(2-hydroxyethyl)aminoacetyl-N-(2-hydroxyethyl)amino}-2,4,6-triiodoisophthalamide] | 8,2 mPa s | 155 | 50% |
| COCC(=O)N(CCO)c1c(I)c(C(=O)NCC(O)CO)c(I)c(C(=O)N(C)CC(=O)N(CCO)c2c(I)c(C(=O)NCC(O)CO)c(I)c(C(=O)NCC(O)CO)c2I)c1I (stereo not drawn) [EXAMPLE 35, N,N'-bis-(2,3-dihydroxypropyl)-5-{3-[N-(2,3-dihydroxypropyl)carbamoyl]-5-methoxyacetyl-N-(2-hydroxyethyl)amino-2,4,6-triiodobenzoyl-N-methylaminoacetyl-N-(2-hydroxyethyl)amino}-2,4,6 triiodoisophthalamide] | 8,2 mPa s | 214 | 49,1% |
| CC(=O)Nc1c(I)c(C(=O)NCC(O)CO)c(I)c(C(=O)N(C)CC(=O)N(C)c2c(I)c(C(=O)NCC(O)CO)c(I)c(C(=O)NCC(O)CO)c2I)c1I (stereo not drawn) [EXAMPLE 37, N,N'-bis-(2,3-dihydroxypropyl)-5-{3-[N-(2,3-dihydroxypropyl)carbamoyl]-5-acetamido-2,4,6-triiodobenzoyl-N-methylacetyl-N-methylamino}-2,4,6-triiodoisophthalamide] | 9,9 mPa s | 130 | 52,6% |
| CC(=O)Nc1c(I)c(C(=O)NCC(O)CO)c(I)c(C(=O)N(C)CC(=O)N(C)c2c(I)c(C(=O)NC(CO)C(O)CO)c(I)c(C(=O)NC(CO)C(O)CO)c2I)c1I (stereo not drawn) [EXAMPLE 38, N,N'-bis-(1-hydroxymethyl-2,3-dihydroxypropyl)-5-{3-[N-(2,3-dihydroxypropyl]carbamoyl]-5-acetamido-2,4,6-triiodobenzoyl -N-methylacetyl-N-methylamino}-2,4,6-triiodoisophthalamide] | 9,1 mPa s | 155 | 50,6% |
| COCC(=O)Nc1c(I)c(C(=O)NCC(O)CO)c(I)c(C(=O)N(CC(=O)N(C)c2c(I)c(C(=O)NCC(O)CO)c(I)c(C(=O)NCC(O)CO)c2I)CC(O)COC)c1I (stereo not drawn) [EXAMPLE 39, N,N'-bis-(2,3-dihydroxypropyl)-5-{3-[N-(2,3-dihydroxypropyl)carbamoyl]-5-methoxyacetamido-2,4,6-triiodobenzoyl--N-(2-hydroxy-3-methoxypropyl)aminoacetyl-N-methylamino} -2,4,6-triiodoisophthalamide] | 9,6 mPa s | 190 | 49,1% |
